This is an account of results in patent US20240207421A1, “NERVE TARGETING PEPTIDES AND METHODS OF USE” (ALUME BIOSCIENCES, INC., priority 2020, published 2024).

In this experiment the test system is Laminin 421/521. Description: Phage display library screening (Example 2), NEB laminin-binding peptides. The arrangement: species or system human. As to conditions: Laminin 421/521, not 211 and 411; combined unique sequence count, Python/R script analysis. The method, then: Phage display library screens were used to identify peptides that bind to target proteins (including specific laminin trimers) that are expressed in human nerves, as described in Table 3. These screens were also carried out to identify peptides that could bind selectively to nerves versus muscle. Such peptides could therefore be useful for systemic in-vivo labeling of nerves during fluorescence assisted surgery. Specifically, m 13 phage libraries expressing 7 or 12 random amino acid peptides, or a cyclic peptide CX7C, on the N-terminus of the minor coat protein pIII (New England Biolabs; NEB) were processed through multiple rounds of selection for binding to target proteins expressed in nerves, or to excised human nerves, nerve extracts, or muscle, as described further below.
For screening against the specified target proteins in Table 1, including LN211, LN411, LN421, and LN521, the phage library was processed by up to 4 binding and wash cycles. For selection, phage libraries were incubated for up to 24 hours at 4° C. in 96 well plates that had been coated with one of the target proteins. Plates were then washed with PBS and phage were eluted using 0.2M glycine pH 2.0. Phage supernatants where then neutralized with Tris pH 9.0 prior to plating on TGI bacteria and LB agar plates. Colonies were counted to determine titer followed by DNA preparation of pools of phage and NextGen sequencing. After rounds of selection, phage were pooled and amplified for iterative selection. Phage that were bound at each round were sequenced. NextGen sequencing of pools after 2, 3 and 4 rounds of selection was used to isolate candidate sequences that were analyzed further to identify those that specifically bound each unique target protein.
For all NEB sequence datasets, a python script was used to translate, trim, and filter the peptide sequences (see details above). A python script was used to group peptides from different assays according to laminin complex binding (laminin complex 211, 411, 421, or 521) and combine the unique sequence counts for each peptide. An R script was written to merge the peptide sequences from different data files and determine peptides that specifically bind one laminin complex and not the others, or that bind both laminin 421 and 521 but not 211 and 411.
Consider “SWHFTGTPFMNR (Laminin 421/521-binding peptide)”, for which the Count was determined as 28.
Under “IDLSLRS (Laminin 421/521-binding peptide)” stands 29.
The same measure for “AVYPLDLGAGMR (Laminin 421/521-binding peptide)”: 46.
The same measure for “QLQHVHL (Laminin 421/521-binding peptide)”: 28; for “LQSNAADHHQGM (Laminin 421/521-binding peptide)”: 75.
“DRLTPITWDWSR (Laminin 421/521-binding peptide)”: the Count was determined as 86.
The same measure for “KQELSDNLASHR (Laminin 421/521-binding peptide)”: 50; for “SVLSTGTANQRH (Laminin 421/521-binding peptide)”: 28.
Regarding “CFQPKMNSC (Laminin 421/521-binding peptide)”, the Count is 42.
Under “NNNAAMQNHGVR (Laminin 421/521-binding peptide)” stands 51; under “GYDLSRLWGMAS (Laminin 421/521-binding peptide)”, 39; under “AKTQAPSNWSGV (Laminin 421/521-binding peptide)”, 43.
The same measure for “TSAVSLR (Laminin 421/521-binding peptide)”: 27.
Under “LGSSRSPSSFLG (Laminin 421/521-binding peptide)” stands 29; under “SHDVANGTSVRT (Laminin 421/521-binding peptide)”, 29.
With “CSHHKLKQC (Laminin 421/521-binding peptide)”, the Count came to 359.
Under “CLNQKWEAC (Laminin 421/521-binding peptide)” stands 64.
The same measure for “KFADTKLTSLRY (Laminin 421/521-binding peptide)”: 28; for “CSSQAKRSC (Laminin 421/521-binding peptide)”: 31.
Under “HSFLGAR (Laminin 421/521-binding peptide)” stands 44; under “LGYGQGTPHRSN (Laminin 421/521-binding peptide)”, 30; under “YHLGPNQKMRTS (Laminin 421/521-binding peptide)”, 48.
With “WDLPTLRKTKQA (Laminin 421/521-binding peptide)”, the Count is on record as 114.
As to “TLKAGTRANDGV (Laminin 421/521-binding peptide)”, the Count amounted to 32.
Under “SNPKHVSSLGQM (Laminin 421/521-binding peptide)” stands 40; under “ALGGEPRKAYQR (Laminin 421/521-binding peptide)”, 45; under “QTLQTRH (Laminin 421/521-binding peptide)”, 44.
Under “KPILWNRSLNAL (Laminin 421/521-binding peptide)” stands 52; under “GDLWNVP (Laminin 421/521-binding peptide)”, 51.
Under “CLHNGQRSC (Laminin 421/521-binding peptide)” stands 37; under “ALPWQSGVHGTK (Laminin 421/521-binding peptide)”, 34; under “DWTQVRVTNWFL (Laminin 421/521-binding peptide)”, 35.
Regarding “AWVEAQNASNPS (Laminin 421/521-binding peptide)”, the Count is reported as 160.
Turning to “CTAWTRQEC (Laminin 421/521-binding peptide)”, the Count is given as 31.
Under “CQTSGHHQC (Laminin 421/521-binding peptide)” stands 31; under “LPMLRHS (Laminin 421/521-binding peptide)”, 32; under “GSPEKRT (Laminin 421/521-binding peptide)”, 30.
“WRSPLTT (Laminin 421/521-binding peptide)”: the Count turned out to be 30.
The same measure for “HQSLAGVPWSRH (Laminin 421/521-binding peptide)”: 53; for “GHPWTEIDFMSS (Laminin 421/521-binding peptide)”: 50; for “EYVKFSHSPRTY (Laminin 421/521-binding peptide)”: 31.
Under “KASIAYD (Laminin 421/521-binding peptide)” stands 30; under “ETGGLAYGSGQK (Laminin 421/521-binding peptide)”, 28.
For the substance “HQSVTGVRSHFH (Laminin 421/521-binding peptide)”, the Count was determined as 27.
Under “YTPRNQL (Laminin 421/521-binding peptide)” stands 55; under “TVARSTAQERSI (Laminin 421/521-binding peptide)”, 28.
On to “VPQIRIK (Laminin 421/521-binding peptide)”, for which the Count is reported as 47.
Under “WAFKAPQ (Laminin 421/521-binding peptide)” stands 61; under “GSLDMGNNKQPV (Laminin 421/521-binding peptide)”, 62; under “CSKHNHSRC (Laminin 421/521-binding peptide)”, 295.
The same measure for “GKPDHRLVSLWR (Laminin 421/521-binding peptide)”: 309; for “QTRWDDGSYQIS (Laminin 421/521-binding peptide)”: 49; for “CNSWKAAKC (Laminin 421/521-binding peptide)”: 29.
Under “AQNLRVHAWASL (Laminin 421/521-binding peptide)” stands 28; under “DIMKSPRSNLRS (Laminin 421/521-binding peptide)”, 37.
On to “CMNKIQRDC (Laminin 421/521-binding peptide)”, for which the Count is 131.
Turning to “CTSKLARHC (Laminin 421/521-binding peptide)”, the Count is listed as 45.
Under “GINLRALDLHAN (Laminin 421/521-binding peptide)” stands 27; under “GHRTLVTSERYL (Laminin 421/521-binding peptide)”, 38; under DGANMENIAPAN, 27.
Under “STNVQRA (Laminin 421/521-binding peptide)” stands 28.
The same measure for “WVAAERR (Laminin 421/521-binding peptide)”: 115; for “ALKIGPETTIYM (Laminin 421/521-binding peptide)”: 35.
As for “TFGSGRSMPIQY (Laminin 421/521-binding peptide)”, the Count was 34.
Under “WPVRNLL (Laminin 421/521-binding peptide)” stands 67; under “CTSSSHQTC (Laminin 421/521-binding peptide)”, 28; under “ASHSRPLMNYAP (Laminin 421/521-binding peptide)”, 49.
The same measure for “AWNGNRS (Laminin 421/521-binding peptide)”: 47.
As to “RAQAHQV (Laminin 421/521-binding peptide)”, the Count came out at 51.
Under “SGWEGKTHQGVR (Laminin 421/521-binding peptide)” stands 69.
